Assay results reported in patent US12059416B2, “Combinations of a H3 antagonist and a noradrenaline reuptake inhibitor, and the therapeutical uses thereof” (BIOPROJET, priority 2018, dated 2024).
Counter-ions that a name gives are not always drawn.

How the values were obtained:
[1] = test system: noradrenaline release in the prefrontal cortex; test: Noradrenaline release in the prefrontal cortex, in vivo microdialysis; conditions: rat prefrontal cortex, oral gavage, maximal increase recorded over 150 min post dosing, mean ± SEM
Excerpt: Effects on noradrenaline release in the prefrontal cortex were investigated in vivo by microdialysis in vigil male Wistar rats as described by AD Medhurst et al. (J. Pharmacol. Exp. Ther. 2007, 321, 1032-1045) and G. Flik et al. (J. Mol. Neurosci. 2015, 56, 320-328). Briefly, anaesthetized rats were implanted with a guide cannulae for sampling in the prefrontal cortex. After at least one week of recovery post-surgery, the microdialysis probe was inserted in the guide cannulae and perfused continuously with artificial cerebrospinal fluid (CSF). The rat was habituated to the microdialysis cage for ˜3 hours. Then, rats received orally (gavage) vehicle, drug or drug combination. CSF samples collected every 30 minutes were analysed for their noradrenaline content by HPLC coupled to a electrochemical detection. Noradrenaline sample levels were expressed in percentage of basal noradrenaline release recorded over 1.5 hour before vehicle or drug treatment.

male Wistar rats = test: Effect on sleep/wake (EEG telemetry) in rats; type: in vivo, rat; conditions: oral gavage, over 12 hours
Protocol: Effects on sleep/wake parameters were investigated in male Wistar rats. Briefly, rats were stereotaxically implanted with cortical electrodes for electroencephalogram (EEG) recording using a telemetric system (Data Sciences Int., Saint Paul, MN, USA) for the acquisition, transfer and storage of motor activity and EEG signals. EEG signals were analysed according to a procedure adapted from the algorithm proposed by R. P. Louis et al. (J. Neurosci. Methods, 2004, 133, 71-80) and the analysis of vigilance stages according to H. Kleinlogel (Neuropsychobiol. 1990-91, 23, 197-204) after a fast Fourier transformation of 8-second duration EEG epochs. This allows the determination for each epoch of its vigilance stage (i.e. active wakefulness, quiet wakefulness, light or deep slow wave sleeps and REM sleep also named paradoxical sleep). Rats received orally (gavage) vehicle, drug or drug combination around 30 minutes before the light onset. Then, EEG signals were continuously recorded and further integrated over the 12-hour diurnal phase.
Effects on sleep/wake recorded in rats of drugs alone or combined are presented in the FIG. 1 (Pitolisant/duloxetine), FIG. 2 (BP1.3656B/duloxetine), FIG. 3 (pitolisant/reboxetine) and FIG. 4 (pitolisant/atomoxetine): […]

Compound | Maximal increase (% of basal noradrenaline release) [1] | decrease in the REM sleep (male Wistar rats)
CNCC[C@H](Oc1cccc2ccccc12)c1cccs1 [duloxetine] | +113 ± 31% | −23%
Clc1ccc(CCCOCCCN2CCCCC2)cc1 [pitolisant, monohydrochloride salt of 1-{3-[3-(4-chlorophenyl)propoxy]propyl}piperidine] | +148 ± 49% | does not have any significant effect
